Experimental data as given in US11697648B2, “Fused pyrimidine pyridinone compounds as JAK inhibitors” (THERAVANCE BIOPHARMA R&D IP, LLC, priority 2019, dated 2023).

How the values were obtained:
[1] = molecular target: JAK2 (Homo sapiens (Human), UniProt O60674); assay: Biochemical JAK2 kinase assay (LanthaScreen)
Method: (§1) Assay 1: Biochemical JAK and Tyk2 Kinase Assays
(§2) A panel of four LanthaScreen JAK biochemical assays (JAK1, 2, 3 and Tyk2) were carried in a common kinase reaction buffer (50 mM HEPES, pH 7.5, 0.01% Brij-35, 10 mM MgCl2, and 1 mM EGTA). Recombinant GST-tagged JAK enzymes and a GFP-tagged STAT1 peptide substrate were obtained from Life Technologies.
(§3) Serially or discretely diluted compounds were pre-incubated with each of the four JAK enzymes and the substrate in white 384-well microplates (Corning) at ambient temperature for 1 h. ATP was subsequently added to initiate the kinase reactions in 10 μL total volume, with 1% DMSO. […] Kinase reactions were allowed to proceed for 1 hour at ambient temperature before a 10 μL preparation of EDTA (10 mM final concentration) and Tb-anti-pSTAT1 (pTyr701) antibody (Life Technologies, 2 nM final concentration) in TR-FRET dilution buffer (Life Technologies) was added. The plates were allowed to incubate at ambient temperature for 1 h before being read on the EnVision reader (Perkin Elmer). Emission ratio signals (520 nm/495 nm) were recorded and utilized to calculate the percent inhibition values based on DMSO and background controls.
(§4) For dose-response analysis, percent inhibition data were plotted vs. compound concentrations, and IC50 values were determined from a 4-parameter robust fit model with the Prism software (GraphPad Software). Results were expressed as pIC50 (negative logarithm of IC50) and subsequently converted to pKi (negative logarithm of dissociation constant, Ki) using the Cheng-Prusoff equation.

[2] = molecular target: JAK3 (Homo sapiens (Human), UniProt P52333); assay: Biochemical JAK3 kinase assay (LanthaScreen)
Chain of JAK3 (P52333 whole entry): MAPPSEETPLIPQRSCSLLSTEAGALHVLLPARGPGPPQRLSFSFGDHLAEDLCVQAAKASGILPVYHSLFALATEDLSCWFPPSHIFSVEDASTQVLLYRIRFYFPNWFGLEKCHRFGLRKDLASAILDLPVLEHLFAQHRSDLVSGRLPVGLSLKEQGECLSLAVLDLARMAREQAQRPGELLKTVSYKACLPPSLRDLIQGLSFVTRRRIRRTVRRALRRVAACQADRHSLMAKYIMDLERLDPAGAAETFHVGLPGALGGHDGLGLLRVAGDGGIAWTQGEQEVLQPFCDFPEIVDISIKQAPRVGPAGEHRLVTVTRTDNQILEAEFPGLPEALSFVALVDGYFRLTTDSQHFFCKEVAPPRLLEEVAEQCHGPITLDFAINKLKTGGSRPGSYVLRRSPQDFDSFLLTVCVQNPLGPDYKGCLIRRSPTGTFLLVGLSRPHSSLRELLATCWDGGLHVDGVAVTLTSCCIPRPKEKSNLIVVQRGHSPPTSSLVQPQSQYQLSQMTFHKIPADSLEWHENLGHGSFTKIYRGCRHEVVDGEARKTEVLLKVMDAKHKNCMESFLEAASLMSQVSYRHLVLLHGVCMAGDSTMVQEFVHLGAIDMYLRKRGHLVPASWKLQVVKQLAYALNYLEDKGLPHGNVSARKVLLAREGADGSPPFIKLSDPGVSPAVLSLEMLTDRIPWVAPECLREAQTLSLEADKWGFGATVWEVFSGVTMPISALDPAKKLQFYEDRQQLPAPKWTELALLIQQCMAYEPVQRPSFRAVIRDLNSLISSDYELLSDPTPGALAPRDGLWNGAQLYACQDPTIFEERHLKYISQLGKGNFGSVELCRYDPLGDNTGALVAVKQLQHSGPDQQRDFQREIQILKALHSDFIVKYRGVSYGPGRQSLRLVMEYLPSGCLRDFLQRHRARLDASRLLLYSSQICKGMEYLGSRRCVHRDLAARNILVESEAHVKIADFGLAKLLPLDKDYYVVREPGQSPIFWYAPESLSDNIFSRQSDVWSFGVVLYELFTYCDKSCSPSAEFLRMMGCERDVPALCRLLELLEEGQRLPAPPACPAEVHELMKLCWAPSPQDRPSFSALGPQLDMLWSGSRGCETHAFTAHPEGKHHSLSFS
Method: as §1, §2, §3, §4

[3] = molecular target: JAK1 (Homo sapiens (Human), UniProt P23458); assay: Biochemical JAK1 kinase assay (LanthaScreen)
Chain of JAK1 (P23458 whole entry): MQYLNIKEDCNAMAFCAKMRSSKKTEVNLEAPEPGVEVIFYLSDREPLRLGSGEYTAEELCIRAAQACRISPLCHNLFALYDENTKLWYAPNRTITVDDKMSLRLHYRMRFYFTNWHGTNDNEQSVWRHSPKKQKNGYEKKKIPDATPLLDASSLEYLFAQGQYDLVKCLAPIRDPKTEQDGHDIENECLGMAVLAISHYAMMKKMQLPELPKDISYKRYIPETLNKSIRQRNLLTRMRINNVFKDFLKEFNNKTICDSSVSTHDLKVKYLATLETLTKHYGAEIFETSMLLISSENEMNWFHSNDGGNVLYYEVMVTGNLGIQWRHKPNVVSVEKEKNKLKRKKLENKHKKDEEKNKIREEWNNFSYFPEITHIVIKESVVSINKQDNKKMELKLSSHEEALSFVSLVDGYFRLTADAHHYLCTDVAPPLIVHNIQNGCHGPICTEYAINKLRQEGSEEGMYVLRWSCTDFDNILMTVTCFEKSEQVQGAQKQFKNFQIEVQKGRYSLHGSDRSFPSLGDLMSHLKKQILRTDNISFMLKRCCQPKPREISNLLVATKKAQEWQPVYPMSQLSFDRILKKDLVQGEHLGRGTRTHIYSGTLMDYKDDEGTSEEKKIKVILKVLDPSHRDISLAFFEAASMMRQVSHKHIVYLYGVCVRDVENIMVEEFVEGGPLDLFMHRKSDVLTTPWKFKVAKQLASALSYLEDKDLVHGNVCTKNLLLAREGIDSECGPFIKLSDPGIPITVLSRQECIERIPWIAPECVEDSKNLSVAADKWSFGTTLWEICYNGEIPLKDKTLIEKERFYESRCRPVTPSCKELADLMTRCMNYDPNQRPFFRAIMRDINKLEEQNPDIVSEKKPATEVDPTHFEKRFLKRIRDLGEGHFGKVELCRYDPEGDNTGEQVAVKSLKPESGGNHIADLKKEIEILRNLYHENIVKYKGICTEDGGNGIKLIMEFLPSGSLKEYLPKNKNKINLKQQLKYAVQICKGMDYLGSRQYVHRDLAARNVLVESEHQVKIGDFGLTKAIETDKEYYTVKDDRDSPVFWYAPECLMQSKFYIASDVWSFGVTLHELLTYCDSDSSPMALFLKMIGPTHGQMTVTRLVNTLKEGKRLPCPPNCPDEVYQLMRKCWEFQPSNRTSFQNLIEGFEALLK
Method: as §1, §2, §3, §4

[4] = molecular target: Tyk2 (Homo sapiens (Human), UniProt P29597); assay: Biochemical Tyk2 kinase assay (LanthaScreen)
Chain of Tyk2 (P29597 whole entry): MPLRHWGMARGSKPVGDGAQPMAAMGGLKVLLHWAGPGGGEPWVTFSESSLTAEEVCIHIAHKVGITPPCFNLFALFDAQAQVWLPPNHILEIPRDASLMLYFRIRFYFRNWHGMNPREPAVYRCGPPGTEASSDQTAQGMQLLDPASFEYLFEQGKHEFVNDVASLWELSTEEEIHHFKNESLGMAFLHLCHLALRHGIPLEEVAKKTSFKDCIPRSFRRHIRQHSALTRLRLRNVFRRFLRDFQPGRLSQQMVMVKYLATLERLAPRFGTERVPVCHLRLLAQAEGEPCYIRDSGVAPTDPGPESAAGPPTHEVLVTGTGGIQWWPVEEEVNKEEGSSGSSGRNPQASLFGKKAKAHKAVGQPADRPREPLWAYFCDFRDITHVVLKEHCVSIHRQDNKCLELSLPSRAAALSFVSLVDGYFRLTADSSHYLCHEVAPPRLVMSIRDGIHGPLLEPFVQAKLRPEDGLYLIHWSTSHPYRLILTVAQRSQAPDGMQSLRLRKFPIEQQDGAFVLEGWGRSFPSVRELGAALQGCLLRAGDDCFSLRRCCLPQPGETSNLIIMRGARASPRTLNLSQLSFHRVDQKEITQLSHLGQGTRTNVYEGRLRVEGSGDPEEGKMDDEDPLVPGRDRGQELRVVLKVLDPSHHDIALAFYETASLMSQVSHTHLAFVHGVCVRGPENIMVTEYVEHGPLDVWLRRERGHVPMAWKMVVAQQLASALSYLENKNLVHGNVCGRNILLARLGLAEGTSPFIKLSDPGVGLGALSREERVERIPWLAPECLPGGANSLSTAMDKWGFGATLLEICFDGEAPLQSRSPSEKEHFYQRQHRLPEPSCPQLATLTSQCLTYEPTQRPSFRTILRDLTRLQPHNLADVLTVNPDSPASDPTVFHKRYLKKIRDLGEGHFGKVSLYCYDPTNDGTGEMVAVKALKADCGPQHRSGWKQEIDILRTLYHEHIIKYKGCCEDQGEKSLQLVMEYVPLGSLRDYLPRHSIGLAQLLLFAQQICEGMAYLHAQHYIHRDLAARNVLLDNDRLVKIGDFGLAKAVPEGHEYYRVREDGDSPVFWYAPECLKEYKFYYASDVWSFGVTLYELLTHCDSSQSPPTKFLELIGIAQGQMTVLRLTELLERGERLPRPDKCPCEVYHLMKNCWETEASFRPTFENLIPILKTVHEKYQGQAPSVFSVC
Method: as §1, §2, §3, §4

[5] = system: IL-2 stimulated STAT5 phosphorylation in Tall-1 human T cell line (JAK3); assay: Cellular JAK3 potency assay: inhibition of IL-2 stimulated pSTAT5 in Tall-1 T cells; format: cell-based
Method: Assay 2: Cellular JAK3 Potency Assay: Inhibition of IL-2 Stimulated pSTAT5 in Tall-1 T Cells
The potency of test compounds for inhibition of interleukin-2 (IL-2) stimulated STAT5 phosphorylation was measured in the Tall-1 human T cell line (DSMZ) using AlphaLisa. Because IL-2 signals through JAK3, this assay provides a measure of JAK3 cellular potency.
Phosphorylated STAT5 was measured via the AlphaLISA SureFire Ultra pSTAT5 (Tyr694/699) kit (PerkinElmer).
Human T cells from the Tall-1 cell line were cultured in a 37° C., 5% CO2 humidified incubator in RPMI (Life Technologies) supplemented with 15% Heat Inactivated Fetal Bovine Serum (FBS, Life Technologies), 2 mM Glutamax (Life Technologies), 25 mM HEPES (Life Technologies) and 1× Pen/Strep (Life Technologies). Compounds were serially diluted in DMSO and dispensed acoustically to empty wells. Assay media (phenol red-free DMEM (Life Technologies) supplemented with 10% FBS (ATCC)) was dispensed (4 μL/well) and plates shaken at 900 rpm for 10 inns. Cells were seeded at 45,000 cells/well in assay media (4 μL/well), and incubated at 37° C., 5% CO2 for 1 hour, followed by the addition of IL-2 (R&D Systems; final concentration 300 ng/ml) in pre-warmed assay media (4 μL) for 30 minutes. After cytokine stimulation, cells were lysed with 6 ul of 3× AlphaLisa Lysis Buffer (PerkinElmer) containing 1× PhosStop and Complete tablets (Roche). The lysate was shaken at 900 rpm for 10 minutes at room temperature (RT). Phosphorylated STAT5 was measured via the pSTAT5 AlphaLisa kit (PerkinElmer). Freshly prepared acceptor bead mixture was dispensed onto lysate (5 μL) under green filtered <100 lux light. Plates were shaken at 900 rpm for 2 mins, briefly spun down, and incubated for 2 hrs at RT in the dark. Donor beads were dispensed (5 μL) under green filtered <100 lux light. Plates were shaken at 900 rpm for 2 minutes, briefly spun down, and incubated overnight at RT in the dark. Luminescence was measured with excitation at 689 nm and emission at 570 nm using an EnVision plate reader (PerkinElmer) under green filtered <100 lux light.
To determine the inhibitory potency of test compounds in response to IL-2, the average emission intensity of beads bound to pSTAT5 was measured in a human T cell line. IC50 values were determined from analysis of the inhibition curves of signal intensity versus compound concentration. Data are expressed as pIC50 (negative decadic logarithm IC50) values (mean standard deviation).

[6] = selectivity JAK3 over JAK1, difference of pKi
[7] = IL-2 stimulated pSTAT5, Tall-1 T cells
[8] = selectivity, difference of pKi values
[9] = IL-2 stimulated pSTAT5 in Tall-1 T cells

Chain of JAK2 (O60674 whole entry): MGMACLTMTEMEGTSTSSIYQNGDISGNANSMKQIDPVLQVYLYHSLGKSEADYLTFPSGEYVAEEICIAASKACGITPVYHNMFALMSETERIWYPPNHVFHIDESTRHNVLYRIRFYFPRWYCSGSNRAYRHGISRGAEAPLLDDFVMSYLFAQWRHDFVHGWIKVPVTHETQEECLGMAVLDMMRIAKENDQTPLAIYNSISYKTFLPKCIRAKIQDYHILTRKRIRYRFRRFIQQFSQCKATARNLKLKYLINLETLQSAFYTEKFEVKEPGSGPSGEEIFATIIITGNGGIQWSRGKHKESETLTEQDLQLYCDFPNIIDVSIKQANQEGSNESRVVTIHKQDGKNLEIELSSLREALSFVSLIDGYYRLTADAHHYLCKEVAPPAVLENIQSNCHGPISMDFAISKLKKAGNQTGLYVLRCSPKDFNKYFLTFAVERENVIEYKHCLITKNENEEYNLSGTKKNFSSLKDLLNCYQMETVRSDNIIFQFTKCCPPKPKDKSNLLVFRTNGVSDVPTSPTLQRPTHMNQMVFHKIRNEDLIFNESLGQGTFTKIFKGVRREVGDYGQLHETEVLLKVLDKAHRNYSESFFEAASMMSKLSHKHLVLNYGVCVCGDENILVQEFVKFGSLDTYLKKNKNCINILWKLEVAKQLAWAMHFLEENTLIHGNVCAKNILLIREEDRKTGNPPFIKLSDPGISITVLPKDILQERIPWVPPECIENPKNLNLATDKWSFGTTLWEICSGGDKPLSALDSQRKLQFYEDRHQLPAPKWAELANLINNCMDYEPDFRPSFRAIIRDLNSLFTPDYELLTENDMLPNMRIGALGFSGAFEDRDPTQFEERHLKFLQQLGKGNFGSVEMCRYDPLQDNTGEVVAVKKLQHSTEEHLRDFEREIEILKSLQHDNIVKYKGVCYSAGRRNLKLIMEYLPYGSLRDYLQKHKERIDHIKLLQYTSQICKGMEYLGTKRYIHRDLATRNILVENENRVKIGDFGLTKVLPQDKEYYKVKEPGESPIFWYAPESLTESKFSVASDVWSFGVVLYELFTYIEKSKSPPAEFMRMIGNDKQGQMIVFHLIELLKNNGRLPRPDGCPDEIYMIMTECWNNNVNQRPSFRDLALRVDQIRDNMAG

Compound	JAK 2 (pKi) [1]	JAK 3 (pKi) [2]	JAK3 (pKi)-JAK1 (pKi) [2, 6]	JAK 1 (pKi) [3]	Tyk 2 (pKi) [4]	Tall-1 (pIC50) [5, 7]	JAK3 (pKi)-JAK1 (pKi) [2, 8]	Tall-1 (pIC50) [5, 9]
C=CC(=O)N1CC(CCn2c(=O)ccc3cnc(Nc4ccc(N5CCN(C(C)CC)CC5)cc4)nc32)C1 (centres unmarked) [Example 115]	E (E represents a pKi value of 7 or below (Ki of 100 nM or above))	B (B represents pKi value between 9 and 10 (Ki between 1 nM and 0.1 nM))	A (A represents a value of 3 or above)	E (E represents a pKi value of 7 or below (Ki of 100 nM or above))	E (E represents a pKi value of 7 or below (Ki of 100 nM or above))	A (A represents a pIC50 value≥7.5 (IC50≤32 nM))		
C=CC(=O)N1CC(CCn2c(=O)ccc3cnc(Nc4ccn(C(C)C)n4)nc32)C1 [Example 257]		B (B represents pKi value between 9 and 10 (Ki between 1 nM and 0.1 nM))		E (E represents a pKi value of 7 or below (Ki of 100 nM or above))			A (A represents a value of 3 or above)	B (B represents a pC50 value between 6.7 (included) and 7.5 (IC50 between 200 nM and 32 nM))
C=CC(=O)N1CC(CCn2c(=O)ccc3cnc(Nc4cnn(CCN(C)C)c4)nc32)C1 [Example 22]		B (B represents pKi value between 9 and 10 (Ki between 1 nM and 0.1 nM))	A (A represents a value of 3 or above)	E (E represents a pKi value of 7 or below (Ki of 100 nM or above))		C (C represents a pIC50 value between 6 and 6.7 (IC50 between 1 μM and 200 nM))		
C=CC(=O)N1CCN(CCn2c(=O)ccc3cnc(Nc4ccn(C(C)C)n4)nc32)[C@@H](CC)C1 [Example 259]		B (B represents pKi value between 9 and 10 (Ki between 1 nM and 0.1 nM))		E (E represents a pKi value of 7 or below (Ki of 100 nM or above))			A (A represents a value of 3 or above)	C (C represents a pIC50 value between 6 and 6.7 (IC50 between 1 μM and 200 nM))
C=CC(=O)N1CCN(CCn2c(=O)ccc3cnc(Nc4ccc(N5CCN(C6CC6)CC5)cc4)nc32)CC1 [Example 50]		B (B represents pKi value between 9 and 10 (Ki between 1 nM and 0.1 nM))	A (A represents a value of 3 or above)	E (E represents a pKi value of 7 or below (Ki of 100 nM or above))		C (C represents a pIC50 value between 6 and 6.7 (IC50 between 1 μM and 200 nM))		
C=CC(=O)N1CCN(CCn2c(=O)ccc3cnc(Nc4ccn(C(C)C)n4)nc32)[C@@H](C)C1 [Example 258]		B (B represents pKi value between 9 and 10 (Ki between 1 nM and 0.1 nM))		E (E represents a pKi value of 7 or below (Ki of 100 nM or above))			A (A represents a value of 3 or above)	C (C represents a pIC50 value between 6 and 6.7 (IC50 between 1 μM and 200 nM))
C=CC(=O)N1CCN(CCn2c(=O)ccc3cnc(Nc4ccn(CC)n4)nc32)[C@@H](CC)C1 [Example 256]		B (B represents pKi value between 9 and 10 (Ki between 1 nM and 0.1 nM))		E (E represents a pKi value of 7 or below (Ki of 100 nM or above))			A (A represents a value of 3 or above)	C (C represents a pIC50 value between 6 and 6.7 (IC50 between 1 μM and 200 nM))
C=CC(=O)N1CC(CCn2c(=O)ccc3cnc(Nc4cnn(CCOC)c4)nc32)C1 [Example 21]		B (B represents pKi value between 9 and 10 (Ki between 1 nM and 0.1 nM))	A (A represents a value of 3 or above)	E (E represents a pKi value of 7 or below (Ki of 100 nM or above))		C (C represents a pIC50 value between 6 and 6.7 (IC50 between 1 μM and 200 nM))		
C=CC(=O)N1CC(CCn2c(=O)ccc3cnc(Nc4ccc(N5C[C@@H](C)N(C)C[C@@H]5C)cc4)nc32)C1 [Example 253]		A (A represents a pKi value≥10 (Ki≤0.1 nM))		E (E represents a pKi value of 7 or below (Ki of 100 nM or above))			A (A represents a value of 3 or above)	B (B represents a pC50 value between 6.7 (included) and 7.5 (IC50 between 200 nM and 32 nM))
C=CC(=O)N1CC(CCn2c(=O)ccc3cnc(Nc4ccc(N5CCOCC5)cn4)nc32)C1 [Example 29]		B (B represents pKi value between 9 and 10 (Ki between 1 nM and 0.1 nM))	A (A represents a value of 3 or above)	E (E represents a pKi value of 7 or below (Ki of 100 nM or above))		C (C represents a pIC50 value between 6 and 6.7 (IC50 between 1 μM and 200 nM))		
C=CC(=O)N1CCN(CCn2c(=O)ccc3cnc(Nc4ccc(N5CCOCC5)c(F)c4)nc32)CC1 [Example 41]		B (B represents pKi value between 9 and 10 (Ki between 1 nM and 0.1 nM))	A (A represents a value of 3 or above)	E (E represents a pKi value of 7 or below (Ki of 100 nM or above))		C (C represents a pIC50 value between 6 and 6.7 (IC50 between 1 μM and 200 nM))		
C=CC(=O)N1CCN(CCn2c(=O)ccc3cnc(Nc4cnn(C)c4)nc32)[C@@H](CN(C)C)C1 [Example 262]		C (C represents a pKi value between 8 and 9 (Ki between 10 nM and 1 nM))		E (E represents a pKi value of 7 or below (Ki of 100 nM or above))			B (B represents a value of 2.5 to 3)	C (C represents a pIC50 value between 6 and 6.7 (IC50 between 1 μM and 200 nM))
C=CC(=O)N1CCN(CCn2c(=O)ccc3cnc(Nc4ccc(N5C[C@@H](C)N(C)[C@H](C)C5)cc4)nc32)[C@@H](CC)C1 [Example 263]		B (B represents pKi value between 9 and 10 (Ki between 1 nM and 0.1 nM))		E (E represents a pKi value of 7 or below (Ki of 100 nM or above))			A (A represents a value of 3 or above)	A (A represents a pIC50 value≥7.5 (IC50≤32 nM))
C=CC(=O)N1CCN(CCn2c(=O)ccc3cnc(Nc4ccn(CC)n4)nc32)[C@@H](C)C1 [Example 255]		B (B represents pKi value between 9 and 10 (Ki between 1 nM and 0.1 nM))		E (E represents a pKi value of 7 or below (Ki of 100 nM or above))			A (A represents a value of 3 or above)	C (C represents a pIC50 value between 6 and 6.7 (IC50 between 1 μM and 200 nM))
C=CC(=O)N1CCN(CCn2c(=O)ccc3cnc(Nc4cnn(CCOC(C)C)c4)nc32)CC1 [Example 42]		B (B represents pKi value between 9 and 10 (Ki between 1 nM and 0.1 nM))	A (A represents a value of 3 or above)	E (E represents a pKi value of 7 or below (Ki of 100 nM or above))		C (C represents a pIC50 value between 6 and 6.7 (IC50 between 1 μM and 200 nM))		
